Patent US20080234318A1, “Chemical Compounds” (priority 2005, published 2008)
pIC50: −log10 of the molar value.

system: HIV-1; assay: HOS HIV-1 infectivity assay; assay type: cell-based; settings: Human immunodeficiency virus 1, BAL / IIIB, HOS cells expressing hCXCR4/hCCR5/hCD4/pHIV-LTR-luciferase, virus strain (Ba-L or IIIB) not given, read-out: Activity Level
Method: Compounds were profiled against two HIV-1 viruses, the M-tropic (CCR5 utilizing) Ba-L strain and the T-tropic (CXCR4 utilizing) IIIB strain. Both viruses were propagated in human peripheral blood lymphocytes. Compounds were tested for there ability to block infection of the HOS cell line (expressing hCXCR4/hCCR5/hCD4/pHIV-LTR-luciferase) by either HIV-1 Ba-L or HIV-1 IIIB. Compound cytotoxicity was also examined in the absence of virus addition.
HOS cells (expressing hCXCR4/hCCR5/hCD4/pHIV-LTR-luciferase) were harvested and diluted in Dulbeccos modified Eagles media supplemented with 2% FCS and non-essential amino acid to a concentration of 60,000 cells/ml. The cells were plated into 96-well plates (100 ul per well) and the plates were placed in a tissue culture incubator (37° C.; 5% CO2/95% air) for a period of 24h.
Subsequently, 50 ul of the desired drug solution (4 times the final concentration) was added to each well and the plates were returned to the tissue culture incubator (37° C.; 5% CO2/95% air) for 1h. Following this incubation 50 ul of diluted virus was added to each well (approximately 2 million RLU per well of virus). The plates were returned to the tissue culture incubator (37° C.; 5% CO2/95% air) and were incubated for a further 96h.
Following this incubation the endpoint for the virally infected cultures was quantified following addition of Steady-Glo Luciferase assay system reagent (Promega, Madison, Wis.). Cell viability or non-infected cultures was measured using a CellTiter-Glo luminescent cell viability assay system (Promega, Madison, Wis.). All luminescent readouts are performed on a Topcount luminescence detector (Packard, Meridien, Conn.).

| SMILES | pIC50 |
| --- | --- |
| CN(C)Cc1c(CN(C)[C@H]2CCCc3cccnc32)nc2cccc(N3CCN(C)CC3)n12 [Example 10, (8S)—N-{[3-[(Dimethylamino)methyl]-5-(4-methyl-1-piperazinyl)imidazo[1,2-a]pyridin-2-yl]methyl}-N-methyl-5,6,7,8-tetrahydro-8-quinolinamine] | > 7.00 |
| CCN(CC)Cc1c(CN(C)[C@H]2CCCc3cccnc32)nc2cccc(N3CCN(C)CC3)n12 [Example 11, (8S)—N-{[3-[(Diethylamino)methyl]-5-(4-methyl-1-piperazinyl)imidazo[1,2-a]pyridin-2-yl]methyl}-N-methyl-5,6,7,8-tetrahydro-8-quinolinamine] | > 7.00 |
| CN1CCN(c2cccc3nc(CN(C)[C@H]4CCCc5cccnc54)c(CN4CCCC4)n23)CC1 [Example 12, (8S)—N-Methyl-N-{[5-(4-methyl-1-piperazinyl)-3-(1-pyrrolidinylmethyl)imidazo[1,2-a]pyridin-2-yl]methyl}-5,6,7,8-tetrahydro-8-quinolinamine] | > 7.00 |
| CN1CCN(c2cccc3nc(CN(C)[C@H]4CCCc5cccnc54)c(CN(CCO)CCO)n23)CC1 [Example 13, 2,2′-({[5-(4-Methyl-1-piperazinyl)-2-({methyl[(8S)-5,6,7,8-tetrahydro-8-quinolinyl]amino}methyl)imidazo[1,2-a]pyridin-3-yl]methyl}imino)diethanol] | > 7.00 |
| CCN(CCO)Cc1c(CN(C)[C@H]2CCCc3cccnc32)nc2cccc(N3CCN(C)CC3)n12 [Example 14, 2-(Ethyl{[5-(4-methyl-1-piperazinyl)-2-({methyl[(8S)-5,6,7,8-tetrahydro-8-quinolinyl]amino}methyl)imidazo[1,2-a]pyridin-3-yl]methyl}amino)ethanol] | > 7.00 |
| CN1CCN(c2cccc3nc(CN(C)[C@H]4CCCc5cccnc54)c(CN4CCC(O)C4)n23)CC1 (stereo partly drawn) [Example 15, 1-{[5-(4-Methyl-1-piperazinyl)-2-({methyl[(8S)-5,6,7,8-tetrahydro-8-quinolinyl]amino}methyl)imidazo[1,2-a]pyridin-3-yl]methyl}-3-pyrrolidinol] | > 7.00 |
| CN1CCN(c2cccc3nc(CN(C)[C@H]4CCCc5cccnc54)c(CN4CCOCC4)n23)CC1 [Example 16, (8S)—N-Methyl-N-{[5-(4-methyl-1-piperazinyl)-3-(4-morpholinylmethyl)imidazo[1,2-a]pyridin-2-yl]methyl}-5,6,7,8-tetrahydro-8-quinolinamine] | > 7.00 |
| CNCc1c(CN(C)[C@H]2CCCc3cccnc32)nc2cccc(N3CCN(C)CC3)n12 [Example 19, (8S)—N-Methyl-N-{[3-[(methylamino)methyl]-5-(4-methyl-1-piperazinyl)imidazo[1,2-a]pyridin-2-yl]methyl}-5,6,7,8-tetrahydro-8-quinolinamine] | > 7.00 |
| CCNCc1c(CN(C)[C@H]2CCCc3cccnc32)nc2cccc(N3CCN(C)CC3)n12 [Example 20, (8S)—N-{[3-[(Ethylamino)methyl]-5-(4-methyl-1-piperazinyl)imidazo[1,2-a]pyridin-2-yl]methyl}-N-methyl-5,6,7,8-tetrahydro-8-quinolinamine] | > 7.00 |
| CN1CCN(Cc2c(CN(C)[C@H]3CCCc4cccnc43)nc3cccc(N4CCN(C)CC4)n23)CC1 [Example 21, (8S)—N-Methyl-N-({5-(4-methyl-1-piperazinyl)-3-[(4-methyl-1-piperazinyl)methyl]imidazo[1,2-a]pyridin-2-yl}methyl)-5,6,7,8-tetrahydro-8-quinolinamine] | > 7.00 |
| CN1CCN(c2cccc3nc(CN(C)[C@H]4CCCc5cccnc54)c(CN4CCCCC4)n23)CC1 [Example 22, (8S)—N-Methyl-N-{[5-(4-methyl-1-piperazinyl)-3-(1-piperidinylmethyl)imidazo[1,2-a]pyridin-2-yl]methyl}-5,6,7,8-tetrahydro-8-quinolinamine] | > 7.00 |
| CC(C)NCc1c(CN(C)[C@H]2CCCc3cccnc32)nc2cccc(N3CCN(C)CC3)n12 [Example 23, (8S)—N-Methyl-N-{[3-{[(1-methylethyl)amino]methyl}-5-(4-methyl-1-piperazinyl)imidazo[1,2-a]pyridin-2-yl]methyl}-5,6,7,8-tetrahydro-8-quinolinamine] | > 7.00 |
| CN1CCN(c2cccc3nc(CN(C)[C@H]4CCCc5cccnc54)c(CN)n23)CC1 [Example 24, (8S)—N-{[3-(Aminomethyl)-5-(4-methyl-1-piperazinyl)imidazo[1,2-a]pyridin-2-yl]methyl}-N-methyl-5,6,7,8-tetrahydro-8-quinolinamine] | > 7.00 |
| CC(=O)NCc1c(CN(C)[C@H]2CCCc3cccnc32)nc2cccc(N3CCN(C)CC3)n12 [Example 25, N-{[5-(4-Methyl-1-piperazinyl)-2-({methyl[(8S)-5,6,7,8-tetrahydro-8-quinolinyl]amino}methyl)imidazo[1,2-a]pyridin-3-yl]methyl}acetamide] | > 7.00 |
| CCC(=O)NCc1c(CN(C)[C@H]2CCCc3cccnc32)nc2cccc(N3CCN(C)CC3)n12 [Example 26, N-{[5-(4-Methyl-1-piperazinyl)-2-({methyl[(8S)-5,6,7,8-tetrahydro-8-quinolinyl]amino}methyl)imidazo[1,2-a]pyridin-3-yl]methyl}propanamide] | > 7.00 |
| CC(C)C(=O)NCc1c(CN(C)[C@H]2CCCc3cccnc32)nc2cccc(N3CCN(C)CC3)n12 [Example 27, 2-Methyl-N-{[5-(4-methyl-1-piperazinyl)-2-({methyl[(8S)-5,6,7,8-tetrahydro-8-quinolinyl]amino}methyl)imidazo[1,2-a]pyridine-3-yl]methyl}propanamide] | > 7.00 |
| CCC(C)C(=O)NCc1c(CN(C)[C@H]2CCCc3cccnc32)nc2cccc(N3CCN(C)CC3)n12 (stereo partly drawn) [Example 28, 2-Methyl-N-{[5-(4-methyl-1-piperazinyl)-2-({methyl[(8S)-5,6,7,8-tetrahydro-8-quinolinyl]amino}methyl)imidazo[1,2-a]pyridin-3-yl]methyl}butanamide] | > 7.00 |
| CN1CCN(c2cccc3nc(CN(C)[C@H]4CCCc5cccnc54)c(CNC(=O)c4ccccc4)n23)CC1 [Example 29, 2 N-{[5-(4-Methyl-1-piperazinyl)-2-({methyl[(8S)-5,6,7,8-tetrahydro-8-quinolinyl]amino}methyl)imidazo[1,2-a]pyridin-3-yl]methyl}benzamide] | > 7.00 |
| CN1CCN(c2cccc3nc(CN(C)[C@H]4CCCc5cccnc54)c(CNC(=O)Cc4ccccc4)n23)CC1 [Example 30, N-{[5-(4-Methyl-1-piperazinyl)-2-({methyl[(8S)-5,6,7,8-tetrahydro-8-quinolinyl]amino}methyl)imidazo[1,2-a]pyridin-3-yl]methyl}-2-phenylacetamide] | > 7.00 |
| COC(=O)NCc1c(CN(C)[C@H]2CCCc3cccnc32)nc2cccc(N3CCN(C)CC3)n12 [Example 31, Methyl {[5-(4-methyl-1-piperazinyl)-2-({methyl[(8S)-5,6,7,8-tetrahydro-8-quinolinyl]amino}methyl)imidazo[1,2-a]pyridin-3-yl]methyl}carbamate] | > 7.00 |
| CCOC(=O)NCc1c(CN(C)[C@H]2CCCc3cccnc32)nc2cccc(N3CCN(C)CC3)n12 [Example 32, Ethyl {[5-(4-methyl-1-piperazinyl)-2-({methyl[(8S)-5,6,7,8-tetrahydro-8-quinolinyl]amino}methyl)imidazo[1,2-a]pyridin-3-yl]methyl}carbamate] | > 7.00 |
